Experimental data from patent US20260174858A1, “TARGETING THE m6A MRNA DEMETHYLASE FTO” (University of Virginia Patent Foundation, priority 2022, published 2026).

Assays:
mouse BMDMs = assay: VEGFA release in mouse BMDMs (ELISA); format: cell-based; settings: FTOi 20 uM 12 hours, with or without LPS 250 ng/ml 6 hours, supernatant ELISA
Experimental: Primary WT or mutant mouse bone marrow derived macrophages (BMDMs) were isolated as previously described (4). BMDMs were cultured in IMDM (Gibco) basal medium containing 10% fetal bovine serum (FBS), 30% L929 supernatants, nonessential amino acids, sodium pyruvate, 2-mercaptoethanol, and antibiotics. THP-1 cells were cultured in RPMI 1640 medium with 10% FBS and antibiotics. Human RPE cells were isolated as previously described and cultured in DMEM medium with 10% FBS and antibiotics. All cells were maintained at 37° C. in a 5% CO2 environment.
The RPE-choroid complex was isolated from mouse eyes on day 3 after laser injury and treatment with FTO inhibitor or vehicle. Eye tissues were lysed by sonication with immunoprecipitation assay (RIPA) buffer (Sigma-Aldrich, R0278, USA) containing protease inhibitor (Sigma-Aldrich, 11836170001, USA), on ice for 15 minutes. The lysate was centrifuged at 20,000×g for 15 minutes at 4° C., and total protein in the lysates was quantified using the Thermo Scientific™ Pierce™ BCA™ Protein Assay (Fisher Scientific, PI23225, USA). VEGFA protein levels in the supernatants were measured by VEGF DuoSet ELISA (R&D Systems, DY493, USA), following the manufacturer's instructions. Mouse BMDMs or human THP-1 cells (5×10^5 cells per well) were plated into six-well plates in complete medium and allowed to adhere overnight. Cells were then incubated for 24 hours in the absence or presence of various doses of FTO inhibitor or METTL3 inhibitors (STM2457, Selleck Chemicals). […] The siRNAs (siFto: 5′-P.G.A.G.G.A.U.C.C.A.A.G.G.C.A.A.A.G.A.U.dT.dT 3′ (SEQ ID NO: 38); siCtrl: 5′-P.U.A.A.G.G.C.U.A.U.G.A.A.G.A.G.A.U.dT.dT 3′; SEQ ID NO: 39), were designed and synthesized by GE Healthcare Dharmacon, were transfected twice with BMDMs by using DharmaFECT 4 Transfection Reagent (Dharmacon, T-2004, USA). VEGFA levels in the supernatants were measured by mouse or human VEGF DuoSet ELISA (R&D Systems, DY493 or DY293B, USA), following the manufacturer's instructions.

Wild type C57BL/6J mice = assay: VEGFA ELISA of RPE-choroid after laser injury; format: in vivo, mouse; settings: FTOi i.p. plus 25 ng intravitreous, day 3 after laser injury
Experimental: Laser photocoagulation (532 nm, 180 mW, 100 ms, 75 μm) (OcuLight GL; IRIDEX Corp., Mountain View, CA, USA) was performed bilaterally (volume studies: 4 spots per eye; RNA analyses: 10 spots per eye) in 6- to 8-week-old mice on day 0 to induce CNV as previously described 1-3. For drug treatment, the mice pretreated with FTO inhibitor (FB23-2, SML2694, Sigma) or vehicle (DMSO) through intraperitoneal injection (i.p, 2 mg/kg). Then, the mice were subjected to laser photocoagulation followed by intravitreous injection of the FTO inhibitor (25 ng/0.5 μl per eye) or vehicle. At day 3 after laser injury, the mice were administered the FTO inhibitor (2 mg/kg) or vehicle via intraperitoneal injection. At day 7, the eyes were collected for fluorescein labeled-isolectin B4 and F4/80 staining and for neovascular volume quantification.
The RPE-choroid complex was isolated from mouse eyes on day 3 after laser injury and treatment with FTO inhibitor or vehicle. […] The lysate was centrifuged at 20,000×g for 15 minutes at 4° C., and total protein in the lysates was quantified using the Thermo Scientific™ Pierce™ BCA™ Protein Assay (Fisher Scientific, PI23225, USA). VEGFA protein levels in the supernatants were measured by VEGF DuoSet ELISA (R&D Systems, DY493, USA), following the manufacturer's instructions. […]

macrophage = assay: mRNA abundance of other pro-angiogenic factors in macrophages (RT-PCR); format: cell-based, mouse; settings: FTO inhibition
Experimental: Total RNA was extracted from mouse BMDMs or eye tissues with TRIzol™ Reagent (Thermo Fisher Scientific, 15596018, USA) and quantified by using a NanoDrop 2000 spectrophotometer (Thermo-Fisher Scientific, USA). Reverse transcription was performed using the QuantiTect Reverse Transcription kit (205313, QIAGEN). Target genes were amplified by real-time quantitative polymerase chain reaction (PCR) (Applied Biosystems, 7900 HT Fast Real-Time PCR system) with Power SYBR Green Master Mix. Relative gene expression was determined by the 2^−ΔΔCt method, and 18S rRNA or GAPDH (glyceraldehyde-3-phosphate dehydrogenase) was used as an internal control.

## Cc1noc(C)c1-c1cc(Cl)c(Nc2ccccc2C(=O)NO)c(Cl)c1 [FB23-2]
Mouse BMDMs
  VEGFA release: inhibits VEGFA release
Mouse BMDMs; listed as FTO inhibitor
  VEGFA release: reduction in mouse VEGFA release
Wild type C57BL/6J mice
  VEGFA protein levels in laser treated RPE-choroid tissue: inhibits VEGFA release in vivo
Wild type C57BL/6J mice; listed as selective inhibitor
  VEGFA protein levels in laser treated RPE-choroid tissue: suppressed VEGFA protein levels
macrophage
  mRNA abundance of other pro-angiogenic factors (Plgf, Pdgfa): did not significantly alter the mRNA abundance
